Results as given in patent publication US8697064B2, “Nitrogenated derivatives of pancratistatin” (Pierre Fabre Medicament, priority 2008, dated 2014).
Where “and” joins values, the source holds several entries; their conditions need not be identical. Equal entries are not always repeated. Structures can show the parent of a compound that is named as a salt. Where two headings read alike, the source gives them in different places.

Experiments:
line A549 (lung) = assay: Cytotoxic activity: inhibition of cell proliferation, ATPLite luminescence of residual ATP after 72 hours; type: cell-based, human; settings: A549 lung tumoral line, 72 hours of incubation
Method: (§1) The cytotoxic activity of the compounds prepared according to the invention was evaluated by measuring inhibition of the cell proliferation of tumoral lines of human origin, such as line A549 (lung) and line HCT 116 (colon). This activity is expressed by IC50, concentration of the tested product capable of inhibiting 50% of cell proliferation. The method used is luminescence measurement of the residual ATP after 72 hours of incubation using the “ATPLite®” kit marketed by Perkin Elmer, as described in the following publication: “Measurement of cytotoxicity by ATP-based luminescence assay in primary cell cultures and cell lines”. I. A. Cree, P. E. Andreotti, Toxicology in Vitro, 11, 553-6, (1997).
(§2) The concentration values are expressed in nanomolar (nM).

line HCT 116 (colon) = assay: as above; type: cell-based, human; settings: HCT 116 colon tumoral line, 72 hours of incubation, read-out: IC50 (nM) HCT116
Method: as §1, §2

[1] = Solubility measurement in buffer D-PBS 1X (pH = 7.2); settings: for solubility: pH 7.2, aqueous buffer
Text: The solvent used is constituted by a buffered solution at pH=7.2 “Dulbecco's Phosphate Buffered Saline” (D-PBS 1X), marketed by Gibco (reference 14190).

| Structure (SMILES) | IC50 (line A549 (lung); Homo sapiens) | IC50 (line HCT 116 (colon); Homo sapiens) | further results |
| --- | --- | --- | --- |
| N[C@H]1[C@H](O)[C@@H](O)[C@@H](O)[C@@H]2NC(=O)c3c(cc4c(c3O)OCO4)[C@@H]12 [Compound 6, (1R,2S,3R,4S,4aR,11bS)-1-amino-2,3,4,7-tetrahydroxy-1,2,3,4,4a,5-hexahydro-[1,3]dioxolo[4,5-j]phenanthridin-6(11bH)-one] | 60 nM | 35 nM | Solubility Buffer D-PBS 1X (pH = 7.2), mass by volume unit ([1]; D-PBS 1X, pH = 7.2): 508 μg/mL; Solubility Buffer D-PBS 1X (pH = 7.2), molarity ([1]; D-PBS 1X, pH = 7.2): 1340 μM |
| [N-]=[N+]=N[C@H]1[C@H](O)[C@@H](O)[C@@H](O)[C@@H]2NC(=O)c3c(cc4c(c3O)OCO4)[C@@H]12 [Compound 5, (1R,2S,3S,4S,4aR,11bR)-1-azido-2,3,4,7-tetrahydroxy-1,2,3,4,4a,5-hexahydro-[1,3]dioxolo[4,5-j]phenanthridin-6(11bH)-one] | 68 nM | 36 nM | – |
| CC(C)(C)OC(=O)N[C@H]1[C@H](O)[C@@H](O)[C@@H](O)[C@@H]2NC(=O)c3c(cc4c(c3O)OCO4)[C@@H]12 [Compound 10, tert-butyl(1R,2S,3S,4S,4aR,11bR)-2,3,4,7-tetrahydroxy-6-oxo-1,2,3,4,4a,5,6,11b-octahydro-[1,3]dioxolo[4,5-j]phenanthridin-1-ylcarbamate] | 270 nM | 32 nM | – |
| O=C1N[C@H]2[C@H](O)[C@H](O)[C@@H](O)[C@H](NCc3ccccc3)[C@@H]2c2cc3c(c(O)c21)OCO3 [Compound 14, (1R,2S,3R,4S,4aR,11bS)-1-(benzylamino)-2,3,4,7-tetrahydroxy-1,2,3,4,4a,5-hexahydro-[1,3]dioxolo[4,5-j]phenanthridin-6(11bH)-one] | 22 nM | 12 nM | – |
| O=C1N[C@@H]2C(=C[C@H](O)[C@@H](O)[C@H]2O)c2cc3c(c(O)c21)OCO3 [Narciclasine 1, Narciclasine, reference compound] | – | – | IC50 (line A549 (lung)): 49 nM; IC50 (line HCT 116 (colon)): 22 nM; solubility [1]: 401 µM and 131 µg/mL |
| O=C1N[C@H]2[C@H](O)[C@H](O)[C@@H](O)[C@H](NC(=O)C3CCCCC3)[C@@H]2c2cc3c(c(O)c21)OCO3 [Compound 21, N-((1R,2S,3R,4S,4aR,11bS)-2,3,4,7-tetrahydroxy-6-oxo-1,2,3,4,4a,5,6,11b-octahydro-[1,3]dioxolo[4,5-j]phenanthridin-1-yl)cyclohexanecarboxamide] | 46 nM | 13 nM | – |
| CN(C)Cc1cccc(C(=O)N[C@H]2[C@H](O)[C@@H](O)[C@@H](O)[C@@H]3NC(=O)c4c(cc5c(c4O)OCO5)[C@@H]23)c1 [Compound 28, 3-((dimethylamino)methyl)-N-((1R,2S,3R,4S,4aR,11bS)-2,3,4,7-tetrahydroxy-6-oxo-1,2,3,4,4a,5,6,11b-octahydro-[1,3]dioxolo[4,5-j]phenanthridin-1-yl)benzamide] | 110 nM | 130 nM | – |
| O=C(N[C@H]1[C@H](O)[C@@H](O)[C@@H](O)[C@@H]2NC(=O)c3c(cc4c(c3O)OCO4)[C@@H]12)c1ccccc1 [Compound 22, N-((1R,2S,3R,4S,4aR,11bS)-2,3,4,7-tetrahydroxy-6-oxo-1,2,3,4,4a,5,6,11b-octahydro-[1,3]dioxolo[4,5-j]phenanthridin-1-yl)benzamide] | 8.7 nM | 4.7 nM | solubility ([1]; Solubility Buffer D-PBS 1X (pH = 7.2), mass by volume unit, D-PBS 1X, pH = 7.2): 393 µg/mL; solubility ([1]; Solubility Buffer D-PBS 1X (pH = 7.2), molarity, D-PBS 1X, pH = 7.2): 867 µM |
| N[C@H]1[C@H](O)[C@@H](O)[C@@H](O)[C@@H]2NC(=O)c3c(cc4c(c3O)OCO4)[C@@H]12 [Hydrochloride of Compound 6, (1R,2S,3R,4S,4aR,11bS)-1-amino-2,3,4,7-tetrahydroxy-1,2,3,4,4a,5-hexahydro-[1,3]dioxolo[4,5-j]phenanthridin-6(11bH)-one] | – | – | Solubility Buffer D-PBS 1X (pH = 7.2), molarity ([1]; D-PBS 1X, pH = 7.2): 3870 μM; Solubility Buffer D-PBS 1X (pH = 7.2), mass by volume unit ([1]; D-PBS 1X, pH = 7.2, listed as compound 6 isolated in the hydrochloride form): 1250 μg/mL |
| CN(C)[C@H]1[C@H](O)[C@@H](O)[C@@H](O)[C@@H]2NC(=O)c3c(cc4c(c3O)OCO4)[C@H]21 [Compound 16, (1R,2S,3S,4S,4aR,11bR)-1-(dimethylamino)-2,3,4,7-tetrahydroxy-1,2,3,4,4a,5-hexahydro-[1,3]dioxolo[4,5-j]phenanthridin-6(11bH)-one] | 150 nM | 81 nM | – |
